The target of one test is T1, ADP P2Y12 receptor (Homo sapiens, UniProt Q9H244).
T1 construct: expressed in transfected cells
Kind of test: FLIPR calcium assay transducing Gi-coupled signaling to the Gq pathway (inhibition of ADP-induced calcium mobilization). To be noted: HEK 293 cells co-transfected with P2Y12 and Gqi5, ADP at EC60-70 dose. The test is classed as cell-based. From the text: A FLIPR Calcium Assay Transducing Gi-Coupled Signaling to the Gq Pathway
The ADP P2Y12 subtype is a Gi coupled GPCR, which mediates inhibition of adenylate cyclase leading to decreased cAMP while Gq proteins primarily activate phospholipase C, which stimulates inositol-1,4,5-triphosphate (IP3) formation and a subsequent increase in intracellular Ca^2+ concentration, which can be easily measured by FLIPR. Prior to the development of a method to convert a Gi coupled GPCR signaling to a Gq coupled GPCR signaling, a significant barrier existed for the functional testing and screening of Gi coupled GPCRs. One popular method, GTPγS migration, is slow, produces a small signal and generates radioactive waste. The discovery that a small switch in the amino acid sequence in the Gi protein could convert it to a protein mediating a Gq coupled response has led to the development of robust, high throughput assays for this valuable receptor subtype.
The FLIPR-based HTS assay transducing the Gi signaling to the Gq pathway is described below.
pcDNA3hygroP2Y12 containing a hygromycin resistance gene and pLEC1-Gqi5-HA containing a neomycin resistance gene (licensed from Molecular Devices, Sunnyvale, Calif.) were co-transfected into Human embryonic kidney (HEK) 293 cells with SuperFect (Qiagen, Valencia, Calif.). Cell clones were selected in the presence of 600 μg/ml hygromycin B (Life Technologies, Carlsbad, Calif.) and 1 mg/ml of G418 (Mediatech, Herndon, Va.). Drug resistant colonies were picked and screened by FLIPR and the gene expression was further confirmed by RT-PCR. Positive clones were maintained in growth medium (DMEM supplemented with 10% FBS, 1× p/s) containing 400 μg/ml of G418 and 200 μg/ml of hygromycin.
The day before the assay, cells are seeded in clear, flat-bottom black-wall, tissue culture treated polystyrene 96- or 384-well plates and incubated at 37° C., 5% CO2. 50 μl of complete dye loading solution (FLIPR Calcium Assay Kit, Molecular Devices) was added to each well containing 100 μl of culture media. The cells were incubated for at least 30 min at 37° C., in 5% CO2 before initiating the assay on the FLIPR. The agonist effect of ADP was tested and EC50 was determined prior to compound testing. The EC60-70 dose was used.
The antagonist compounds were prepared at 4× and the agonists were diluted at 5× the concentration desired in the test wells, and then aliquoted into the sample plates. The sample plates and the cell plate were placed in the FLIPR assay chamber. A first addition (50 μl) was made at the start of reading and a second addition (50 μl) was made after 5 min of reading. Raw fluorescence data was exported for each well and tabulated versus time within an ASCII file. Data was then imported into Excel and the peak response over the basal level was determined. The percent inhibition for each compound was calculated by the change in fluorescent density as a % inhibition of the control ADP response to obtain an IC50, as shown in Table 1 (wherein N/A means Not Applicable).

A further test addresses T2, P2Y12 receptor (Homo sapiens, UniProt Q9H244).
T2 construct: expressed in transfected cells
Kind of test: Whole cell receptor binding assay, 2-MeS[3H]-ADP. As to conditions: HEK 293 cells stably transfected with P2Y12; 2-MeS[3H]-ADP 3 nM; 30 min at 37° C.; read-out: Inhibition of Receptor Binding (IC50 μM). The protocol:
A whole cell-binding assay for 2-MeS [^3H]-ADP (Custom synthesized by Amersham BioScience, Piscataway, N.J.) to the P2Y12 receptor was performed.
A P2Y12 cDNA containing hygromycin resistant gene was transfected in HEK 293 cells. A stable cell line was obtained by a cloning selection method. The cells were cultured in DMEM supplemented with 10% FBS and 1× of p/s.
On the day of the assay, the cells were harvested and resuspended in 0.25% BSA-DMEM and adjusted to a cell concentration of 1.6×10^6/ml. 15 μl of each compound was mixed with 120 μl of cell suspension in 96 well assay plates and incubated for 5 min prior to the addition of the radio-labeled ligand 2-MeS[^3H]-ADP (3 nM final in 0.25% BSA-DMEM) or unlabeled […] (for non-specific binding). The reaction was then incubated for 30 min at 37° C. and stopped by adding cold DMEM. The labeled and unlabeled cells were separated by a filtration method using a Packard Filtermate 196 on to the unfilter-96 GF/B plate. The plates were dyed in a 37° C. oven for 1-2 hours and 50 μl of MicroScint-20 (PerkinElmer) was added to each well. The radioactivity was measured using a TOPCOUNT beta counter (Packard). The percent inhibition for each compound was calculated by the change in radioactivity as a % inhibition of the control to obtain an IC50, as shown in Table 2.

The next test concerns platelets. Kind of test: In vitro platelet aggregation (ADP-induced, washed platelets). The test is classed as cell-based. As to conditions: Homo sapiens, washed platelets from healthy volunteers, agonist giving 60-70% aggregation, % inhibition of control ADP response. The protocol: Platelet aggregation studies were performed according to a published method (Bednar, B., Condra, C., Gould, R. J., and Connolly, T. M., Throm. Res., 77:453-463 (1995). Platelet-rich plasma (PRP) concentrates prepared from healthy volunteers who were aspirin free for at least 7 days by venipuncture using ACD-A as anticoagulant was purchased from Biological Specialties, Inc. (Colmar, Pa.). PRP was centrifuged at 730 g for 15 min. The platelet pellet was washed twice in CGS buffer (13 mM sodium citrate, 30 mM glucose, 120 mM NaCl, pH 6.5) containing 1 μ/ml apyrase (grade V, Sigma-Aldrich, St. Louis, Mo.), 1 mM EGTA, and resuspended in Tyrode's buffer (140 mM NaCl, 2.7 mM KCl, 12 mM NaHCO3, 0.76 mM Na2HPO4, 5.5 mM dextrose, 5.0 mM Hepes, 0.2% BSA, pH 7.4). The platelets were diluted to 3×10^8 platelets/ml and kept >45 min at 37° C. before use. 105 μl of washed platelets, 2 mM CaCl2 and […] of fibrinogen were added to a 96-well microliter plate.
Platelet aggregation was initiated by the addition of serial concentrations of ADP (BioData Corp. Horsham, Pa.). Buffer was added to one set of control wells. The assay plate was stirred constantly and intermittently placed in a microplate reader (Softmax, Molecular Devices, Menlo Park, Calif.) to read optical density (650 nm) at 0 and 5 minutes after the addition of the compound solutions. Aggregation was calculated as the decrease in optical density between the time 0- and 5-min measurements and expressed as % of aggregation. For the inhibition assay, platelet aggregation was conducted as described above except for compound additions. Test compounds were prepared in 100% DMSO and stored.
On the day of the assay, test compounds were diluted in the buffer containing 3% of DMSO as a 10× working solution. 15 μl of compound solutions were added to 105 μl of platelets 5 min prior to the addition of CaCl2 and fibrinogen.

T1 sequence (Q9H244 whole entry): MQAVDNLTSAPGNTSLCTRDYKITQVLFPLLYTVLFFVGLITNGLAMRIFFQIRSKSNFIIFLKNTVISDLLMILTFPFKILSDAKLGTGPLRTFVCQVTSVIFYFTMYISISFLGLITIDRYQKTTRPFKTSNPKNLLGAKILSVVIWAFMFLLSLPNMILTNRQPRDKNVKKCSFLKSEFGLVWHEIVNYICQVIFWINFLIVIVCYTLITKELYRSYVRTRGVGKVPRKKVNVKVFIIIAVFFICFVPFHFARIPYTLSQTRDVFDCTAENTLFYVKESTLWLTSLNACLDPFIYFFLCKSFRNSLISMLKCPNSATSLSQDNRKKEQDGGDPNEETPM
T2 sequence (Q9H244 whole entry): as above

Consider `CCCSc1nc(N[C@@H]2C[C@H]2c2ccccc2)c2nnn([C@@H]3C[C@H](c4nnc[nH]4)[C@@H](O)[C@H]3O)c2n1` (mixture of isomers) [Cpd 21, (1R,2S,3R,5R)-3-{7-[(1RS,2SR)-2-phenyl-cyclopropylamino]-5-propylsulfanyl-[1,2,3]triazolo[4,5-d]pyrimidin-3-yl}-5-(4H-[1,2,4]triazol-3-yl)-cyclopentane-1,2-diol], for which the values for the IC50 at ADP P2Y12 receptor, on P2Y12 receptor and in the test on platelets were 0.155 µM, 0.0659 µM and 0.046 µM, respectively.
The matching figures for `CCCSc1nc(N[C@@H]2C[C@H]2c2ccccc2)c2nnn([C@@H]3C[C@H](Cn4cnnn4)[C@@H](O)[C@H]3O)c2n1` (mixture of isomers) [Cpd 4, (1R,2S,3R,5R)-3-{7-[(1RS,2SR)-2-phenyl-cyclopropylamino]-5-propylsulfanyl-[1,2,3]triazolo[4,5-d]pyrimidin-3-yl}-5-tetrazol-1-ylmethyl-cyclopentane-1,2-diol]: 0.799 µM, 0.371 µM and 1.15 µM.
Turning to `CCCSc1nc(N[C@@H]2C[C@H]2c2ccccc2)c2nnn([C@@H]3C[C@H](Cn4ncnn4)[C@@H](O)[C@H]3O)c2n1` (mixture of isomers) [Cpd 3, (1R,2S,3R,5R)-3-{7-[(1RS,2SR)-2-phenyl-cyclopropylamino]-5-propylsulfanyl-[1,2,3]triazolo[4,5-d]pyrimidin-3-yl}-5-tetrazol-2-ylmethyl-cyclopentane-1,2-diol], the IC50 was 0.595 µM on ADP P2Y12 receptor, 0.148 µM at P2Y12 receptor and 1.24 µM in the test on platelets.
In the same order, the values of `CCCSc1nc(N[C@@H]2C[C@H]2c2ccccc2)c2nnn([C@@H]3C[C@H](Cn4ccnc4)[C@@H](O)[C@H]3O)c2n1` (mixture of isomers) [Cpd 5, (1S,2R,3R,5R)-3-imidazol-1-ylmethyl-5-{7-[(1RS,2SR)-2-phenyl-cyclopropylamino]-5-propylsulfanyl-[1,2,3]triazolo[4,5-d]pyrimidin-3-yl}-cyclopentane-1,2-diol] are 0.805 µM, 0.26 µM and 0.529 µM.
The matching figures for `CCCSc1nc(NCC2CC2)c2nnn([C@@H]3C[C@H](c4nnn[nH]4)[C@@H](O)[C@H]3O)c2n1` [Cpd 10, (1R,2S,3R,5R)-3-[7-(cyclopropylmethyl-amino)-5-propylsulfanyl-[1,2,3]triazolo[4,5-d]pyrimidin-3-yl]-5-(1H-tetrazol-5-yl)-cyclopentane-1,2-diol]: 0.542 µM, 0.139 µM and 1.54 µM.
For `CCCSc1nc(N[C@@H]2C[C@H]2c2ccccc2)c2nnn([C@@H]3C[C@H](c4nnn[nH]4)[C@@H](O)[C@H]3O)c2n1` (mixture of isomers) [Cpd 1, (1R,2S,3R,5R)-3-{7-[(1RS,2SR)-2-phenyl-cyclopropylamino]-5-propylsulfanyl-[1,2,3]triazolo[4,5-d]pyrimidin-3-yl}-5-(1H-tetrazol-5-yl)-cyclopentane-1,2-diol], the IC50 on ADP P2Y12 receptor came to 0.037 µM; on P2Y12 receptor, 0.0043 µM; in the test with platelets, 0.037 µM.
As to `CCCSc1nc(N[C@H]2C[C@@H]2c2ccccc2)c2nnn([C@@H]3C[C@H](c4nnn[nH]4)[C@@H](O)[C@H]3O)c2n1` [Cpd 23, (1R,2S,3R,5R)-3-{7-[(1S,2R)-2-phenyl-cyclopropylamino]-5-propylsulfanyl-[1,2,3]triazolo[4,5-d]pyrimidin-3-yl}-5-(1H-tetrazol-5-yl)-cyclopentane-1,2-diol], the values for the IC50 at ADP P2Y12 receptor, on P2Y12 receptor and with platelets were 0.264 µM, 0.061 µM and 0.04 µM, respectively.
In the same order, the values of `CCCCNc1nc(SCCC)nc2c1nnn2[C@@H]1C[C@H](c2nnc[nH]2)[C@@H](O)[C@H]1O` [Cpd 20, (1R,2S,3R,5R)-3-(7-butylamino-5-propylsulfanyl-[1,2,3]triazolo[4,5-d]pyrimidin-3-yl)-5-(4H-[1,2,4]triazol-3-yl)-cyclopentane-1,2-diol] are 0.765 µM, 0.422 µM and 0.198 µM.
In the same order, the values of `CCCSc1nc(NCCc2cccs2)c2nnn([C@@H]3C[C@H](c4nnc(C)[nH]4)[C@@H](O)[C@H]3O)c2n1` [Cpd 15, (1S,2R,3R,5R)-3-(5-methyl-4H-[1,2,4]triazol-3-yl)-5-[5-propylsulfanyl-7-(2-thiophen-2-yl-ethylamino)-[1,2,3]triazolo[4,5-d]pyrimidin-3-yl]-cyclopentane-1,2-diol] are 10.4 µM, 3.74 µM and 6.47 µM.
The matching figures for `CCCSc1nc(NCC(F)(F)F)c2nnn([C@@H]3C[C@H](c4nnc(C)[nH]4)[C@@H](O)[C@H]3O)c2n1` [Cpd 18, (1S,2R,3R,5R)-3-(5-methyl-4H-[1,2,4]triazol-3-yl)-5-[5-propylsulfanyl-7-(2,2,2-trifluoro-ethylamino)-[1,2,3]triazolo[4,5-d]pyrimidin-3-yl]-cyclopentane-1,2-diol]: greater than 30 µM, 6.2 µM and greater than 30 µM.
Regarding `CCCSc1nc(NCCSC)c2nnn([C@@H]3C[C@H](c4nnc(C)[nH]4)[C@@H](O)[C@H]3O)c2n1` [Cpd 19, (1R,2S,3R,5R)-3-[7-(2-methylsulfanyl-ethylamino)-5-propylsulfanyl-[1,2,3]triazolo[4,5-d]pyrimidin-3-yl]-5-(5-methyl-4H-[1,2,4]triazol-3-yl)-cyclopentane-1,2-diol], the IC50 was greater than 30 µM on ADP P2Y12 receptor, 5.09 µM on P2Y12 receptor and greater than 30 µM in the test with platelets.

The values above are taken from US7566722B2, “Triazolopyrimidine derivatives as ADP P2Y12 receptor antagonists” (Janssen Pharmaceutica, N.V., priority 2006, dated 2009).
